# Assay results: US20120189579A1 (priority 2009, published 2012)
# Experiments:
# [1] = molecular target: T1, HCV NS5BΔ21/Gal4-DBD fusion protein (Hepatitis C virus genotype 1b, UniProt Q9WMX2); test: 3D-SCREEN assay (NS5B reporter gene assay in Huh-7 cells); assay type: cell-based, HCV genotype 1b
# T1 construct: The protein was expressed with a 21 amino acid C-terminal deletion to remove transmembrane domain; expressed in transfected cells; host or cells: Huh-7 (transient transfection)
# Description: (§1) Human Hepatoma Huh-7 cell line was maintained in DMEM/HAMF-12 supplemented with 10% SVF, 4 mM glutamine, […] Na pyruvate, 1% penistreptomycine. HCV replicon containing Huh-7 cell lines Huh-9.13 and Luc Neo ET (Reblikon) were maintained in DMEM supplemented with 10% SVF, 2 mM glutamine, and 1×NEAA, 100 U/ml penicillin, and 100 μg/ml streptomycine. Replicon cells were maintained in medium supplemented with 1 mg/ml G418 for replicon Huh-9.13 and 0.5 mg/ml for Luc Neo et replicon unless indicated otherwise. Huh-7 and HCV replicon cell lines were maintained at 37° C. and 5% CO2 in a humidified atmosphere. Cells were dissociated at sub confluence with trypsin EDTA 1×.
# cDNA encoding HCV NS5B genotype 1b, was cloned in frame with Gal4-DNA Binding Domain. The protein was expressed with a 21 amino acid C-terminal deletion to remove transmembrane domain. Expression of NS5BΔ21/Gal4 DBD fusion protein was under control of SV40 early promoter. 3D-Sensor peptide was cloned in frame with VP16 activation domain. Expression of 3D-Sensor/VP16 AD fusion protein was under control of CMV promoter. Expression of the firefly luciferase reporter gene was inducible by the [Target protein/conformation sensitive peptide/VP16AD] complex.
# It is a single-target, cell based assay. Briefly, expression of a reporter gene depends on the interaction of a short peptide, thereafter named 3D-Sensor, and native conformation of the target protein. Whenever the conformation of the target protein is modified, interaction between 3D-sensor and target protein is disrupted and reporter gene is not expressed anymore. Conformation modifiers are identified by loss of expression of reporter gene. NS5B 3D-Screen platform was generated in Huh-7 cell lines by transient transfection of three expression vectors encoding respectively • (i) HCV NS5BΔ21/Gal4-DBD fusion protein • (ii) the 3D-sensor peptide 14/VP16 fusion protein • (iii) the firefly luciferase reporter gene
# Huh-7 cells were dissociated the day before transfection and seeded in T175 flasks at a density of 10^7 cells in 30 ml culture medium. Equimolar ratios of vectors were transfected in cell according to optimized jetPEI transfection protocol (PolyPlus Transfection, Illkirch, France) and 10 μg total DNA/10^6 cells. Transfection was performed for 2 hours at 37° C. and 5% CO2 in a humidified atmosphere. After two hours cells were dissociated and seeded in 96 wells plates at a density of 25,000 cells per well and 90 μl culture medium. 10 μl of compounds to be tested were added 2 hours after seeding. Final concentration of DMSO was 1%. Cells were incubated in the presence of compounds for 24 hours after which expression of firefly luciferase reporter gene was quantified. Briefly, culture medium was removed and cells were lysed by addition of 100 μl of lysis buffer containing 125 mM Tris Phosphate ph 7.8, 10 mM EDTA, 5 mM DTT, 50% glycerol and 5% Triton. Plates were vortexed 10 min at 1300 rpm. Cell lysat was transferred in OpaqueWhite Assay 96 well Flat Bottom plates. 100 μl of luciferin solution 1× were added to each well. Luciferin solution contained 40 mM Tris Phosphate ph 7.8, 0.2 mM EDTA, 67 mM DTT, 2.14 mM MgCl2, 5.4 mM MgSO4, 4.7×10^−4 M luciferin, 5.3×10^−4 M ATP and 2.7×10^−4 M Acetyl co enzyme A. Luminescence was immediately measured with Berthold Microlumat Plus LB 96V luminometer with an integration of 0.5 sec. Inhibition was calculated using the formula: % inhibition=(1−(read/average max))*100. Average max=signal in absence of compound
# [2] = system: HCV replicon Luc Neo ET in Huh-7 cells; test: Replicon assay (Luc Neo ET replicon); assay type: cell-based; conditions: Hepatitis C virus, 72 hours with compound, firefly luciferase reporter, read-out: EC50—Replicon LucneoET
# Description: as §1
# Replicon Luc Neo ET is a bicistronic expression constructs (Lohmann et al, 1999, Science 285, 110-113). In brief, the structural genes of the HCV genome were replaced by heterologous sequences; the gene encoding the neomycin phosphotransferase (NPT) and the internal ribosome entry site (IRES) of the encephalomyocarditis virus (EMCV). The bicistronic construct is therefore composed of the following elements: HCV-IRES nucleotides 1-389, the NPT gene, the EMCV-IRES directing translation of downstream HCV sequences from NS2 or NS3 up to the authentic 3′ end of the genome. HCV Polyprotein harbours the cell culture adaptive mutations E1202G, T1280I, K1846T. G418-resistance is only possible with cells containing high amounts of replicon.
# Cells were dissociated the day before addition of compounds and seeded in 96 well-plates at a final concentration of 77 777.77 cells·ml^−1·well^−2 in 90 μl final volume of culture medium per well and were maintained at 37° C. and 5% CO2 in a humidified atmosphere for 24 hours. 10 μl of compounds to be tested were added 24 hours after seeding. Final concentration of DMSO was 1%. Cells were incubated in the presence of compounds for 72 hours after which expression of firefly luciferase reporter gene was quantified. Briefly, culture medium was removed and cells were lysed by addition of 100 μl of lysis buffer containing 125 mM Tris Phosphate ph 7.8, 10 mM EDTA, 5 mM DTT, 50% glycerol and 5% Triton. Plates were vortexed 10 min at 1300 rpm. Cell lysat was transferred in OpaqueWhite Assay 96 well Flat Bottom plates. 100 μl of luciferin solution 1× were added to each well. Luciferin solution contained 40 mM Tris Phosphate ph 7.8, 0.2 mM EDTA, 67 mM DTT, 2.14 mM MgCl2, 5.4 mM MgSO4, 4.7×10^−4 M luciferin, 5.3×10^−4 M ATP and 2.7×10^−4 M Acetyl co enzyme A. Luminescence was immediately measured with Berthold Microlumat Plus LB 96V luminometer with an integration of 0.5 sec Inhibition was calculated using the formula:
# % inhibition=1−[(RLUsample−RLUbackground)/(RLUsignal−RLUbackground)]
# [3] = molecular target: T2, purified HCV NS5B with a deletion of the 21 C-terminal amino acids (Hepatitis C virus genotype 1b, UniProt Q9WMX2); test: HCV NS5B RdRp enzyme assay; assay type: biochemical; conditions: read-out: inhibition (RdRp enzyme assay)
# T2 construct: purified HCV NS5B with a deletion of the 21 C-terminal amino acids
# Description: The assay was performed in a total volume of 20 μl containing 20 mM Tris pH 7.5, 1 mM DTT, 17 U RNasin, 50 mM NaCl, 10% DMSO, 5 mM MgCl2, 0.5 mM each of the 3 NTPs (ATP, CTP, GTP), 86 nM RNA template (341 nt from the 3′ end of HCV minus strand RNA), 50 nM of purified HCV NS5B with a deletion of the 21 C-terminal amino acids and 2 μCi [^3H]UTP (46 Ci·mmol^−1). The reaction mixture was incubated for 2 h at 25-30° C. and the radio labeled products were precipitated by the addition of 10% TCA. The radioactivity incorporated was quantified by counting in a Wallac scintillation counter. Increasing concentrations of tested compounds were added to the complete RdRp reaction mixture. After a two hour incubation period at 25-30° C., the amount of labeled product was determined as above. Two types of control reactions were done: a negative control corresponding to the complete mixture without enzyme and a positive control with enzyme but without compounds. In each experiment, test and control samples are in duplicate.
# The level of activity with each compound concentration was expressed with the formulae: […]
# The IC50 value was calculated as the compound concentration reducing polymerase activity by 50%.
SMILES,EC50 [1] [µM],EC50 [2] [µM],inhibition at 10 µM [3] [%],melting point [°C]
Cc1ccc(C(=O)C2=C(O)C(=O)N(c3ncc(S(=O)(=O)c4ccc([N+](=O)[O-])cc4)s3)C2c2ccc(C(C)(C)C)cc2)cc1 (stereo not drawn) [Example 28],2,4,85,
"Cc1nnc(N2C(=O)C(O)=C(C(=O)c3ccc(C(C)C)cc3)C2c2ccc(C(F)(F)F)cc2)s1 (stereo not drawn) [Example 128, 3-hydroxy-4-(4-isopropyl-benzoyl)-1-(5-methyl-[1,3,4]thiadiazol-2-yl)-5-(4-trifluoromethyl-phenyl)-1,5-dihydro-pyrrol-2-one]",< 1,< 1,,257
"Cc1cnc(N2C(=O)C(O)=C(C(=O)c3ccc(C(C)C)cc3)C2c2ccc(OC(F)(F)F)cc2)s1 (stereo not drawn) [Example 130, 3-hydroxy-4-(4-isopropyl-benzoyl)-1-(5-methyl-thiazol-2-yl)-5-(4-trifluoromethoxy-phenyl)-1,5-dihydro-pyrrol-2-one]",< 10,< 10,,243 to 244
